Laboratory results as given in PubChem BioAssay (NCI).
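Results reflect a 48-hour exposure of cells in 96-well plates to compound at five concentrations. Here, GI50 denotes the concentration required for 50% inhibition of growth. The concentration for full growth arrest is given as TGI.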 Active and inactive are the calls of the source. Rule as the data show it: active = GI50 below about 0.43 µM; inactive = the rest.

Key:
Experiment in all cases: NCI-60 cell line screen, 48 h
DMS 273 small cell lung = system: DMS 273 small cell lung
U251 CNS = system: U251 CNS
SF-539 CNS = system: SF-539 CNS
SF-268 CNS = system: SF-268 CNS
SN12C renal = system: SN12C renal
LXFL 529 NSCLC = system: LXFL 529 NSCLC
SK-MEL-2 melanoma = system: SK-MEL-2 melanoma
T-47D breast = system: T-47D breast
MDA-MB-435 = system: MDA-MB-435

SMILES	TGI (DMS 273 small cell lung)	TGI (U251 CNS)	TGI (SF-539 CNS)	TGI (SF-268 CNS)	TGI (SN12C renal)	TGI (LXFL 529 NSCLC) [µM]	TGI (SK-MEL-2 melanoma)	TGI (T-47D breast) [µM]	TGI (MDA-MB-435) [µM]	GI50 (DMS 273 small cell lung)	GI50 (U251 CNS)	GI50 (SF-539 CNS)	GI50 (SF-268 CNS)	GI50 (SN12C renal)	outcome (LXFL 529 NSCLC)	GI50 (SK-MEL-2 melanoma)	GI50 (T-47D breast) [nM]	GI50 (MDA-MB-435) [nM]	GI50 (LXFL 529 NSCLC) [nM]
C/C(=C1/CCC/C(=C(/C)c2ccccc2)C1=O)c1ccccc1	> 100 µM	74.2 µM	> 100 µM	> 100 µM	> 100 µM	> 100	38.7 µM												
CCCCCCC(=O)C/C(=N/NC(N)=S)C(=O)NC1C2CC3CC(C2)CC1C3 (stereo not drawn)		> 100 µM		> 100 µM	> 100 µM	> 100	> 100 µM												
COc1cccc(N2C(=O)[C@H]3CC(C)c4c([nH]c5ccccc45)[C@H]3C2=O)c1 (stereo partly drawn)	> 100 µM	> 100 µM	93.1 µM	> 100 µM	> 100 µM	> 100	> 100 µM												
CC(C)CCCC(=O)CCCCCCC(=O)CCN(O)C(=O)C(N)CO (stereo not drawn)		65 µM	37.4 µM	60 µM	43 µM		39.5 µM	34.8	83.6										
CCCCN1CSC(=S)N(Cc2ccccc2)C1		> 100 µM	> 100 µM	> 100 µM	> 100 µM		> 100 µM	> 100	> 100										
C/C=C1/C(=C/c2[nH]c(/C=c3\[nH]/c(=C/C4=NC(=O)C(CC)=C4C)c(C)c3CCC(=O)O)c(CCC(=O)O)c2C)NC(=O)C1C (stereo not drawn)	> 150 µg/mL	> 150 µg/mL	> 150 µg/mL	> 150 µg/mL	> 150 µg/mL		> 150 µg/mL			> 150 µg/mL	> 150 µg/mL	> 150 µg/mL	> 150 µg/mL	> 150 µg/mL	inactive	> 150 µg/mL			
COc1ccc(C2SCC(=O)N2NC(=O)Nc2c(C)nc3ccccn23)cc1 (stereo not drawn)		27.9 µM	> 100 µM	> 100 µM	> 100 µM		> 100 µM	74.9	> 100		13800 nM	34100 nM	39700 nM	54400 nM		41800 nM	26400	> 100000	
COC(C(O)c1ccc2c(c1)OCO2)P(=O)(c1ccccc1)c1ccccc1 (stereo not drawn)	> 100 µM	> 100 µM	> 100 µM	> 100 µM	> 100 µM		> 100 µM												
O=c1[nH]c(=O)n(C2OC(CO)C(O)C(O)C2O)cc1F (stereo not drawn)		> 100 µM	> 100 µM	> 100 µM	> 100 µM	> 100	> 100 µM	> 100	> 100										
COc1ccc(CNc2nc3cc(C(F)(F)F)ccc3nc2C)cc1OC	48.9 µM	> 100 µM	> 100 µM	> 100 µM	> 100 µM	> 100	70.1 µM												
COc1cc2c3c(n(C)c(=O)c2cc1OC)-c1cc2c(cc1/C3=C\CNCCCN)OCO2		1.58 µM	7.29 µM	10.8 µM	1.07 µM			3.02	5.72		71.7 nM	834 nM	762 nM	115 nM		2330 nM		1020	
Cc1ccc(-c2cc(=O)c3cc(C)c(C)c(C(=O)O)c3o2)cc1C	> 100 µM	> 100 µM	> 100 µM		> 100 µM	> 100	> 100 µM												
O=C(Nc1ccc(Cl)cc1Cl)C(=O)C(C(=O)c1ccncc1)C1OC(=O)c2ccccc21 (stereo not drawn)		> 100 µM	> 100 µM	> 100 µM	> 100 µM	> 100													
N#Cc1cccc(NC(=O)c2cc(-c3ccc(F)cc3F)ccc2O)c1		> 100 µM	10.5 µM	> 100 µM	8.32 µM		5.49 µM	6.83	9.32		2790 nM	3070 nM	3110 nM	2100 nM		1760 nM	1100	2380	
COc1cc2c3c(n(CCNCCCNCCn4c5c(c6cc(OC)c(OC)cc6c4=O)C(=O)c4ccccc4-5)c(=O)c2cc1OC)-c1ccccc1C3=O		1.49 µM	15.5 µM		1.59 µM		15.2 µM	> 34.7	2.55		73.3 nM	199 nM	64.8 nM	< 16.6 nM		1040 nM	2320	1020	
CC(=O)O.[Au].c1ccc([PH+](c2ccccc2)c2ccccc2)cc1	55.4 µM	7.49 µM	23.2 µM	11.5 µM	8.85 µM	2.92	8.47 µM			11.3 µM	2570 nM	8600 nM	3050 nM	2940 nM		3240 nM			1570
COC1=CC2(C=CC1=O)c1cc(OC)c(OC)cc1CCN2C(=O)c1ccccc1 (stereo not drawn)	> 100 µM	> 100 µM	> 100 µM		> 100 µM	> 100													
COC(=O)c1cc(C)c(C)c2c1NC(=O)CNC2=O	> 100 µM	> 100 µM	> 100 µM		> 100 µM	> 100	> 100 µM												
N#CCc1ccc(C(C#N)/C(CCCC(=O)Nc2cccc([N+](=O)[O-])c2)=N/NC(N)=S)cc1 (stereo not drawn)	> 100 µM	> 100 µM	> 100 µM	> 100 µM	> 100 µM	> 100	> 100 µM												
C=C[C@H]1C[C@@H]2C[C@@H]3[C@H]4C/C=C\C(=O)NCCCC5NC(=O)C(=C(O)/C=C/[C@@H]4CC(=O)[C@H]3[C@@H]2[C@H]1C)C5=O (stereo partly drawn)		3.07 µM	0.666 µM	0.334 µM	0.342 µM		2.58 µM	3.52	0.408		1610 nM	248 nM	172 nM	182 nM		1080 nM	1650	203	
CC(=O)N1C/C(=C\c2ccc(N(C)C)cc2)C(=O)/C(=C/c2ccc(N(C)C)cc2)C1	> 100 µM	> 100 µM	52.2 µM	> 100 µM	> 100 µM	> 100													
